Results published in US20050054680A1, “Agonists and antagonists of 5h3-like receptors of invertebrates as pesticides” (priority 2001, published 2005).
Entries after “also recorded” stand apart in the source; their conditions may differ. Like-named read-outs stand apart in the source and are kept apart here.

Assays:
[1] = system: C. elegans of the Bristol N2 strain; assay: Automated feeding assay (bead ingestion, pharyngeal pumping); assay type: in vivo, Caenorhabditis elegans; conditions: for Effect of 0.325 mM compound on serotonin-stimulated (0.325 mM) bead ingestion: 0.325 mM compound plus 0.325 mM serotonin; for Effect of 0.325 mM compound on bead ingestion: no added serotonin; for IC50 (inhibitory concentration 50%) for bead ingestion / IC50: estimated from log dose response curves (FIG. 2); for IC50: read-out: IC50 (inhibitory concentration 50%) for bead ingestion
Text: An automated screening assay has been developed and described in the present Applicants' co-pending International patent application No. PCT/AU00/01476 (WO 01/40500). Using the screening assay, twenty novel tropanyl ester compounds as well as tropanyl dichlorobenzoate were screened for nematicidal activity.
The assay used was essentially that described in WO 01/40500 with minor modifications. The protocol was as follows:
(1.) Plate Culture. C. elegans of the Bristol N2 strain (Brenner, 1974) were cultured at room temperature on HMS174 E. coli bacteria (Campbell et al., 1978) spread on a 150 mm diameter petri dish containing enhanced NGM 1.7% (w/v) (Avery and Horvitz, 1990) agar until a good population of adult nematodes was present, but food reserves had not been exhausted.
(2.) The nematodes were collected by washing each plate with 10 mL and then 5 mL of M9 buffer plate and filtering over a 20 μm nylon mesh (Nytal—Catalogue no. BCNY-HDO02-20) to retain adult nematodes. The nematodes from 7-8 of these 150 mm plates were collected together and placed on a 63 μm mesh filter (Nytal—product code PA-25-43) and washed with 200-250 mL of M9 buffer or MilliQ water. This procedure allows the passage of nematodes whilst retaining larger debris. Finally the nematodes were collected over a 20 μm mesh.
(3.) Adult nematodes were collected from the mesh using a pasteur pipette and allowed to settle in an eppendorf tube at 1×g for 10 minutes. This packed volume was used to calculate quantities of nematodes for experiments and assays, although nematodes were resuspended in 2-10 volumes of M9 buffer for transfer. Quantitative transfers of nematodes were performed using a Gilson Pipetman P200 or equivalent and a yellow tip with 5 mm cut off the sharp end.
(4.) Assays were performed in 24 well tissue-lture clusters (Nunc multidish). The final assay volume was 230 μL comprising the following sequential additions: • (i) M9 buffer—sufficient to bring the final volume to 230 μL • ([…]) Any other pharmacological agents—≦1.5 μL of drug in DMSO (or water) • (iv) Nematodes—150 μL of a 10% (v/v) stock in M9 • (v) Fluorescent beads—23 μL of a 1% w/v solution in M9.
Where serotonin or other pharmacological agents were omitted, the volume was adjusted with M9 buffer. Control experiments included 1.5 μL of DMSO except in the case of ondansetron, which was added from an aqueous stock.
The fluorescent beads were 1.30 μm uniformly dyed microsphere beads with a hydrophilic surface-coating. The fluorescence excitation maximum was 420 nm and the emission maximum was 485 nm (catalogue code FC04F, carboxylate-modified polystyrene/polyvinyl copolymer, manufactured and supplied by Bangs Laboratories, Inc. 9025 Technology Drive, Fishers, INDIANA 46038-2886, USA).
(5.) The nematodes were incubated for 60 minutes after the addition of the fluorescent beads at room temperature (≈21° C.) without shaking. The assay was terminated by the addition of 20 μL of 100 mM sodium azide.
(6.) Two aliquots of 100 μl each were transferred from each well of the 24 well cluster to a pair of wells in a pre-blocked mesh-bottomed plate (see below for details of the mesh-bottomed plate) and the buffer/bead suspension was immediately aspirated away through the filter mesh using a Millipore Multiscreen vacuum manifold.
(7.) A total of eight washing steps were performed. Each of the first five washes used 200 μL of 1%(w/v) sodium lauryl sulphate (SDS—Sigma) in M9 buffer. The third and fifth washes involved pipetting the solution up and down in the wells of the plate ten times each wash. The SDS washes were followed by three washes with 200 μL of M9 buffer only. At the end of each washing step, solutions were aspirated away through the mesh using a Millipore Multiscreen vacuum manifold. […]

nematode C. elegans = conditions: cited from earlier work
insects = conditions: in vivo; cited from earlier work
[2] = as summarised in the background, no concentration given
[3] = in the presence of 1 mM serotonin
[4] = Caenorhabditis elegans, in the presence of 1 mM serotonin

| SMILES | Effect of 0.325 mM compound on serotonin-stimulated (0.325 mM) bead ingestion [1] | Effect of 0.325 mM compound on bead ingestion [1] | other results |
| --- | --- | --- | --- |
| COC(=O)[C@H]1CC[C@H](C(=O)OC2C[C@H]3CC[C@@H](C2)N3C)CC1 (relative stereo) [DCP-45235 (15), trans-cyclohexane-1,4-dicarboxylic acid methyl ester tropan-3-yl ester] | no effect/reverses | no effect | – |
| Cc1[nH]c2ccc(O)cc2c1CCN.Cl [2-methyl-5-hydroxytryptamine, 2-methyl-5-hydroxytryptamine hydrochloride] | – | – | Effect on locomotion (nematode C. elegans; 3 mM): did not inhibit locomotion; Effect on pharyngeal pumping (nematode C. elegans; 3 mM): strongly stimulated; Effect on pharyngeal pumping (nematode C. elegans; [2]): strongly and specifically stimulated |
| CN1[C@@H]2CC[C@H]1CC(OC(=O)c1ccccc1)C2 (stereo partly shown) [DCP-45221 (1), benzoic acid tropan-3-yl ester] | potentiates marginally | stimulates marginally | – |
| CN1[C@@H]2CC[C@H]1CC(OC(=O)c1ccccc1Cl)C2 (stereo partly shown) [DCP-45222 (2), 2-chloro-benzoic acid tropan-3-yl ester] | no effect | no effect | – |
| CN1[C@@H]2CC[C@H]1CC(OC(=O)c1cccc(CCl)c1)C2 (stereo partly shown) [DCP-45223 (3), 3-chloromethyl-benzoic acid tropan-3-yl ester] | no effect | no effect | – |
| CN1[C@@H]2CC[C@H]1CC(OC(=O)c1cccc(Cl)c1)C2 (stereo partly shown) [DCP-45224 (4), 3-chloro-benzoic acid tropan-3-yl ester] | strongly reversed; also recorded: reverses strongly | no effect | IC50 (inhibitory concentration 50%) for bead ingestion [1, 3]: impossible to estimate |
| CN1[C@@H]2CC[C@H]1CC(OC(=O)c1ccc(Cl)cc1)C2 (stereo partly shown) [DCP-45225 (5), 4-chloro-benzoic acid tropan-3-yl ester] | no effect | no effect | – |
| CN1[C@@H]2CC[C@H]1CC(OC(=O)c1cc(F)ccc1F)C2 (stereo partly shown) [DCP-45226 (6), 2,5-difluoro-benzoic acid tropan-3-yl ester] | reverses marginally | no effect | – |
| CN1[C@@H]2CC[C@H]1CC(OC(=O)c1c(F)cccc1F)C2 (stereo partly shown) [DCP-45227 (7), 2,6-difluoro-benzoic acid tropan-3-yl ester] | reverses marginally | no effect | – |
| CN1[C@@H]2CC[C@H]1CC(OC(=O)c1ccc(Cl)c(Cl)c1)C2 (stereo partly shown) [DCP-45228 (8), 3,4-dichloro-benzoic acid tropan-3-yl ester] | strongly reversed; also recorded: reverses strongly | reduced; also recorded: inhibits | Implied IC50 without serotonin (extrapolated from IC50 ratio, not measured) ([1]; Caenorhabditis elegans, in the absence of added serotonin, implied from the tropanyl dichlorobenzoate IC50 ratio with and without serotonin, read-out: IC50 and therefore chronic EC50 implied from differential factor): ~6 µM |
| CN1[C@@H]2CC[C@H]1CC(OC(=O)c1ccccc1F)C2 (stereo partly shown) [DCP-45229 (9), 2-fluoro-benzoic acid tropan-3-yl ester] | strongly reversed; also recorded: reverses marginally | no effect | Anomalous activity in dose response for bead ingestion ([1]; in the presence of 1 mM serotonin, at lower doses): very strong stimulatory effects; IC50 (inhibitory concentration 50%) for bead ingestion [1, 3]: impossible to estimate |
| CC(Oc1ccccc1)C(=O)OC1C[C@H]2CC[C@@H](C1)N2C (stereo partly shown) [DCP-45230 (10), 2-phenoxy-propionic acid tropan-3-yl ester] | reverses marginally | inhibits | – |
| CN1[C@@H]2CC[C@H]1CC(OC(=O)Cc1ccccc1)C2 (stereo partly shown) [DCP-45231 (11), phenyl-acetic acid tropan-3-yl ester] | reverses marginally | inhibits | – |
| COC(=O)C12C3C4C1C1C2C3C41C(=O)OC1C[C@H]2CC[C@@H](C1)N2C (stereo partly shown) [DCP-45232 (12), cubane-1,4-dicarboxylic acid methyl ester tropan-3-yl ester] | – | no effect | Effect of 0.325 mM compound on serotonin-stimulated (0.325 mM) bead ingestion ([1]; observed with an unpurified mixture): reverses marginally^1 |
| CN1[C@@H]2CC[C@H]1CC(OC(=O)C1CC1)C2 (stereo partly shown) [DCP-45233 (13), cyclopropanecarboxylic acid tropan-3-yl ester] | potentiates marginally | no effect | – |
| CN1[C@@H]2CC[C@H]1CC(OC(=O)C1CCC1)C2 (stereo partly shown) [DCP-45234 (14), cyclobutanecarboxylic acid tropan-3-yl ester] | no effect | no effect | – |
| COC(=O)c1ccc(C(=O)OC2C[C@H]3CC[C@@H](C2)N3C)cc1 (stereo partly shown) [DCP-45236 (16), terephthalic acid methyl ester tropan-3-yl ester] | no effect | no effect | – |
| COC(=O)c1cccc(C(=O)OC2C[C@H]3CC[C@@H](C2)N3C)c1 (stereo partly shown) [DCP-45237 (17), isophthalic acid methyl ester tropan-3-yl ester] | no effect | no effect | – |
| COC(=O)c1ccccc1C(=O)OC1C[C@H]2CC[C@@H](C1)N2C (stereo partly shown) [DCP-45238 (18), phthalic acid methyl ester tropan-3-yl ester] | strongly reversed; also recorded: reverses markedly | no effect | – |
| COC(=O)c1cncc(C(=O)OC2C[C@H]3CC[C@@H](C2)N3C)c1 (stereo partly shown) [DCP-45239 (19), pyridine-3,5-dicarboxylic acid methyl ester tropan-3-yl ester] | potentiates marginally | no effect | – |
| CN1[C@@H]2CC[C@H]1CC(OC(=O)c1c[nH]c3ccccc13)C2 (stereo partly shown) [DCP-45240 (20), 1H-indole-3-carboxylic acid tropan-3-yl ester] | reverses markedly | no effect | IC50 [1, 4]: 316 µM |
| Cc1nccn1CC1CCc2c(c3ccccc3n2C)C1=O (stereo not shown) [ondansetron] | – | – | Effect on pharyngeal pumping (nematode C. elegans; [2]): profoundly inhibited; Effect on serotonin-stimulated rate of pharyngeal pumping (nematode C. elegans; drug 0.325 mM, serotonin 0.325 mM): antagonised the stimulatory effect; IC50 [1, 4]: 562 µM; Detrimental effects in insects (insects): significant detrimental effects, including some mortality |
